In PMC8126654, “Novel Pan-Pim Kinase Inhibitors With Imidazopyridazine and Thiazolidinedione Structure Exert Potent Antitumor Activities” (Frontiers in Pharmacology, 2021):

How the values were obtained:
PC-3 [1] = assay: Cell cycle analysis, PC-3; assay type: cell-based; settings: 24 h (DMSO 41%)
Text: (§1) After treatment, cells were fixed and stained with propidium iodide using the Cell Cycle Phase Determination kit (Cayman Chemical, Ann Arbor, MI, United States) and analyzed by Guava EasyCyteTM Plus System (Merck Millipore).

MV-4-11 [2] = assay: Cell cycle analysis, MV-4-11; assay type: cell-based; settings: 24 h (DMSO 52%)
Text: as §1

MV-4-11 [3] = assay: Immunoblot analysis of phosphorylation of Pim kinase substrates, MV-4-11; assay type: cell-based; settings: MV-4-11, 4 h
Description: (§2) Cells were plated overnight and then treated with test compounds for 4 hours. Then, the cells were lyzed in solubilization buffer [10 mM Tris-HCl (pH7.4), 0.1% (w/v) NP-40, 0.1% (w/v) sodium deoxycholate, 0.1% (w/v) SDS, 0.15 M NaCl, 1 mM EDTA, 10 µM aprotinin] with phosphatase inhibitor cocktails (Nakarai Tesque, Kyoto, Japan), and subjected to SDS-PAGE using 15% (w/v) gels under reducing conditions. The separated proteins were electrotransferred to Immobilon transfer membranes (Merck Millipore, Darmstadt, Germany). Then, each membrane was reacted with primary antibodies, which were subsequently complexed with appropriate horseradish peroxidase-conjugated secondary antibodies. Signals were detected using the ECL Western Blotting Detection System (GE Healthcare Life Sciences) and protein expression was quantified with a LAS-3000 Luminescent Image Analyzer (GE Healthcare Life Sciences). The protein bands were quantified using ImageQuant TL software (GE Healthcare Life Sciences).

Pim-1 = molecular target: T1, Pim-1 (Homo sapiens, UniProt P11309); assay: Binding detection based on SPR platform (BIACORE T200); settings: 6.5, 13, 25, or 50 µM
T1 construct: purchased Life Technologies; Thermo Fisher Scientific Inc
T1 sequence (P11309 whole entry): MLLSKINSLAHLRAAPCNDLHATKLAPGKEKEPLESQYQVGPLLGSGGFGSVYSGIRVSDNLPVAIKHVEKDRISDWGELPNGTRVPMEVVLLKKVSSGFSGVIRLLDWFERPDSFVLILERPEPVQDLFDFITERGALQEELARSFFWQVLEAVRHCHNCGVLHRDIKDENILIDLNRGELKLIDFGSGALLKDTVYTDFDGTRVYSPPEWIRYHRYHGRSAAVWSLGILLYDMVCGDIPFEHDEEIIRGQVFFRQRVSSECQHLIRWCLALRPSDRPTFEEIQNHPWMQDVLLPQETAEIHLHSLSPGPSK
Description: The interactions between test compounds and Pim-1 were detected by surface plasmon resonance platform BIACORE T200 (GE Healthcare Life Sciences, Buckinghamshire, England). Pim-1 was diluted to 20 μg/ml in 10 mM acetate buffer (pH 5.0), and then immobilized as a ligand in the N-hydroxysuccinimide/ethyl 3-(3-dimethylaminopropyl) carbodiimide-pre-activated CM5 sensor chip, following blocking by ethanolamine. Test compounds were diluted at 6.5, 13, 25, or 50 µM in a vehicle of 5% DMSO (v/v) in phosphate buffered saline (PBS). The dilutions were injected as analyte flow liquid phase with PBS containing 5% DMSO (v/v) as running buffer at a constant flow rate of 30 μL/min. A 2-min association time was set. The data were collected by Biacore Control Software. Kinetics and affinity parameters were evaluated with the Langmuir model (1:1) using BIA evaluation software.

HCT116 = assay: Apoptosis assay in HCT116 (Hoechst 33342 nuclear morphology, Cell Death ELISA); assay type: cell-based
Description: For caspase-3/7 activity assay, the Caspase-Glo 3/7 Assay System (Promega, Madison, WI) was used according to the manufacturer’s protocol. […] The Caspase-Glo 3/7 reagent was then added to each well and incubated for 1 h, and caspase-3/7 activity was measured. […] After treatment, cells were stained in 0.5 μg/ml Hoechst 33342 for 30 min. Subsequently, cell morphology was observed and images were captured from random visual fields using fluorescence microscopy (Biozero BZ-8100, Keyence, Osaka, Japan). […] After treatment, DNA fragmentation was detected using the Cell Death Detection ELISA^PLUS (Roche Applied Science, Mannheim, Germany).

MKN45 = assay: Immunoblot analysis of phosphorylation of Pim kinase substrates, MKN45; assay type: cell-based; settings: MKN45, 4 h
Description: as §2

Pim-1, 2, and 3 = assay: Kinetic assay (Lineweaver-Burk analysis); assay type: biochemical
Description: Enzyme kinetic experiments were performed at pH 7.5 in 50 mM HEPES buffer with 1 mM EGTA, 10 mM MgCl2, and 0.01% Brij-35. […] Plates were immediately placed into a Caliper LabChip EZ Reader II (PerkinElmer Inc.) and wells were sampled periodically throughout an 1-hour reaction period for initial reaction rate. The fluorescent product and substrate were separated and monitored on a Caliper microfluidic instrument. The conversion of substrate was calculated with Caliper software. Ki values were determined from the double reciprocal Lineweaver-Burk plot.

PC-3 [4] = assay: Immunoblot analysis of phosphorylation of Pim kinase substrates, PC-3; assay type: cell-based; settings: PC-3, 4 h
Description: as §2

Phosphorylation level of 4EBP (MV-4-11 [3]): decreased
Phosphorylation levels of Bad, 4EBP, and p21 (MKN45): decreased
Phosphorylation levels of Bad, 4EBP, and p21 (PC-3 [4]): decreased
Compound: CN1CCN(c2ccc(-c3cnc4ccc(/C=C5\SC(=O)NC5=O)nn34)cc2)CC1 [YPC-21440, (Z)-5-([3-{4-(4-methylpiperazin-1-yl)phenyl}imidazo[1,2-b]pyridazin-6-yl]methylene)thiazolidine-2,4-dione]
Percentage of cells in G1 phase (PC-3 [1]; PC-3, 0.3 µM): 55%
Percentage of cells in G1 phase (PC-3 [1]; PC-3, 1 µM): 65%
Percentage of cells in G1 phase (MV-4-11 [2]; MV-4-11, 0.3 µM): 55%
Percentage of cells in G1 phase (MV-4-11 [2]; MV-4-11, 1 µM): 77%
Binding to Pim-1 by SPR (Biacore) (Pim-1): bound Pim-1 in a concentration-dependent manner
Chromatin condensation (HCT116; HCT116, 1 µM, 48 h): induced
DNA fragmentation (HCT116; HCT116, ≥ 0.3 µM, 24 h): induced
Mode of inhibition of Pim kinases (Lineweaver-Burk) (Pim-1, 2, and 3): ATP competitive manner
